Source: patent US8012949B2, “Bisphosphonate compounds and methods with enhanced potency for multiple targets including FPPS, GGPPS, and DPPS” (The Board of Trustees of the University of Illinois, priority 2004, dated 2011)
Read-outs that look alike come from different tables or passages of the source.

Tests used:
[1] = Adsorption onto bone in vivo
Text: (§1) A potential drawback to the use of bisphosphonates in treating non-bone resorption diseases is expected to be that they would be rapidly adsorbed onto bone. […]

[2] = tested on: MCF-7 (breast adenocarcinoma); test: MCF-7 cell growth inhibition (MTT), incl. FOH/GGOH rescue; format: cell-based, human; details: for rescue from growth inhibition by geranylgeraniol (GGOH): GGOH 20 μM
Text: (§2) Cell Growth Inhibition Assays. […] A broth microdilution method was used to determine IC50 values for growth inhibition by each bisphosphonate. […] NBPs were typically initially dissolved in H2O (0.01 M) while NNBPs were typically dissolved in DMSO (0.01 M).
GraphPad PRISM® version 4.0 software for windows (GraphPad Software Inc., San Diego, Calif., www.graphpad.com) was used to fit the data to a rectangular hyperbolic function: I=(ImaxC)/(IC50+C);
For the “rescue” experiments, stock solutions of FOH or GGOH were prepared (in ethanol) and the requisite amounts added to the incubation media to produce a fixed 20 μM concentration.

[3] = tested on: NCI-H460 (lung large cell); test: NCI-H460 cell growth inhibition (MTT); format: cell-based, human; details: Table 1, experimental
Text: as §2
(§3) GraphPad PRISM® version 4.0 software for windows (GraphPad Software Inc., San Diego, Calif., www.graphpad.com) was used to fit the data to a rectangular hyperbolic function: I=(ImaxC)/(IC50+C); […]

[4] = tested on: SF-268 (central nervous system glioblastoma); test: SF-268 cell growth inhibition (MTT); format: cell-based, human; details: Table 1, experimental
Text: as §2, §3

[5] = molecular target: T1, human FPPS (Homo sapiens, UniProt P14324); test: human FPPS enzyme inhibition; format: biochemical
T1 construct: made in house
T1 sequence (P14324 1-419): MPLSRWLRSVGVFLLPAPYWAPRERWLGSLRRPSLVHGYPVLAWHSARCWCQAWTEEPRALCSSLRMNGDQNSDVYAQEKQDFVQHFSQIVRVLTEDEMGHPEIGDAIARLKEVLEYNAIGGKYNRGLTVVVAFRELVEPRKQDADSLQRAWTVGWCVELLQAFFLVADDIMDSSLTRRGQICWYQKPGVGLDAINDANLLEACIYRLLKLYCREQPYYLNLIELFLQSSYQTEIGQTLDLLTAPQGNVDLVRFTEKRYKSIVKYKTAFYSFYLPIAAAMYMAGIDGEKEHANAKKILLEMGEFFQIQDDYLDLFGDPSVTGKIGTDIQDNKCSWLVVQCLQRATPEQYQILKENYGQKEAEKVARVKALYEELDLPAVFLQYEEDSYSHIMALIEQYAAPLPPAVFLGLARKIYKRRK
Text: (§4) To test our polypharmaceutical hypothesis, we expressed three enzymes: human FPPS, GGPPS and DPPS, and tested each for their inhibition by a series of bisphosphonates.

[6] = tested on: bone resorption; test: Bone resorption IC50
Text: as §1

[7] = tested on: SK-ES-1 sarcoma cells; test: SK-ES-1 sarcoma mouse xenograft; details: daily intraperitoneal 5 μg, athymic nude mice, SK-ES-1 xenograft
[8] = tested on: Vγ2Vδ2 T cells; test: γδ T cell activation (TNF-α release and proliferation); format: cell-based, human
Protocol: γδ T Cell Assays. Vγ2Vδ2 T cell TNF-α release and proliferation were performed basically as described previously^1. Briefly, to measure bioactivity for Vγ2Vδ2 T cells, the CD4^+ JN.24, CD4^+ HF.2, CD8αα^+ 12G12, or the CD4^−8^− HD.108 Vγ2Vδ2 T cell clones were stimulated with phosphoantigens in the presence of CP.EBV (an EBV transformed B cell line) for CD4^+ clones or Va-2 (a transformed fibroblast) for CD8αα^+ and CD4^−8^− clones. CP.EBV and Va-2 were fixed with 0.05% glutaraldehyde (EM grade, Sigma, Mo.) for use as APCs. […] Curve fitting minima for each experiment (e.g. TNF-α release from JN.24 cells) were determined using the Global Fitting technique, as implemented in Prism 4.0. Curve fitting maxima were optimized for each individual compound without the use of any constraints.

[9] = molecular target: T2, human DPPS (Homo sapiens, UniProt Q5T2R2); test: human DPPS enzyme inhibition; format: biochemical
T2 construct: made in house
T2 sequence (Q5T2R2 1-415): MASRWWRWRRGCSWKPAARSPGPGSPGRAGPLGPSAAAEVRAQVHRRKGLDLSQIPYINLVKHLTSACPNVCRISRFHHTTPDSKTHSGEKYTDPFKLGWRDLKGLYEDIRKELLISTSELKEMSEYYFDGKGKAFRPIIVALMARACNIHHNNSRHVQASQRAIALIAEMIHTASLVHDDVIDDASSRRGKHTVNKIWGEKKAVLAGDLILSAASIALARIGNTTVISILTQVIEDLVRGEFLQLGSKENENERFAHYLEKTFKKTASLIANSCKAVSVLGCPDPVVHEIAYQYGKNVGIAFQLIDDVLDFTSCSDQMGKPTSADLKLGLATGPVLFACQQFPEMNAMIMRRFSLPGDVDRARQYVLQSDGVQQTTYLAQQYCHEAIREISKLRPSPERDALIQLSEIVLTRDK
T2 sequence (Q86YH6 1-399 partner): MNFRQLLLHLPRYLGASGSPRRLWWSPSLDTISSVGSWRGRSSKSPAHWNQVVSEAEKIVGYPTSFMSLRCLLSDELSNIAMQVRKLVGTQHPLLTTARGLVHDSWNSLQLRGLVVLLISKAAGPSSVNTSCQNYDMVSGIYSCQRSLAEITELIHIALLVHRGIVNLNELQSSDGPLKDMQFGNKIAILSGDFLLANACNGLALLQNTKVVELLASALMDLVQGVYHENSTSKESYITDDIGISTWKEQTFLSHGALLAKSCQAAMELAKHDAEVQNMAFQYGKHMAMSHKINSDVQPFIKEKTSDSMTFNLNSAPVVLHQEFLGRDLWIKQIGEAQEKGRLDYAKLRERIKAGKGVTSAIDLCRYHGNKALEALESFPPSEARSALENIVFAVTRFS
Text: as §4

[10] = tested on: T. brucei FPPS; test: T. brucei FPPS inhibition; format: biochemical, Trypanosoma brucei; details: Table 9
[11] = tested on: MDA-MB-231 cells; test: Matrigel invasion assay; format: cell-based, human
Text: Tumor cell invasiveness and in vivo results. […] .

[12] = Homo sapiens, MCF7, FIG. 2A, read-out: IC50, MCF-7 tumor cell growth inhibition

Structure (SMILES) | adsorption onto bone in vivo [1] | rescue from growth inhibition by geranylgeraniol (GGOH) [2] | IC50 [2, 12] [nM] | IC50 [6] [nM] | reduction in tumor cell growth [7] | γδ T cell activation [8] | MCF-7 pIC50 (M) ([2]; Table 1, experimental) | NCI-H460 pIC50 (M) [3] [M] | SF-268 pIC50 (M) [4] [M] | FPPS pKi (M) ([5]; Table 1, experimental) | effect on DPPS [9] | DPPS pKi ([9]; Table 1, experimental) | further results
CCCCCCCCCCOc1ccc[n+](CC(P(=O)([O-])O)P(=O)(O)O)c1 (centres unmarked) [BPH-715] | only very weakly adsorbed | only a partial rescue | ~50 | ~800 | even more pronounced (p=0.032 versus zoledronate) | potent activity |  |  |  |  |  |  | rescue from growth inhibition by addition of farnesol ([2]; FOH fixed 20 μM): no rescue; IC50 ([2]; Homo sapiens, MCF7, Table 1, experimental, read-out: MCF-7 pIC50 (converted)): 200 nM; IC50 ([2]; Homo sapiens, MCF7, Table 2, -log10(value, M), read-out: MCF-7 Cell pIC50 (converted)): 107 nM; IC50 ([3]; Homo sapiens, NCI-H460, read-out: NCI-H460 pIC50 (converted)): 63.1 nM; IC50 ([4]; Homo sapiens, SF-268, read-out: SF-268 pIC50 (converted)): 100 nM; Ki ([5]; Table 1, experimental, read-out: FPPS pKi (converted)): 50.1 nM; EC50 ([8]; Homo sapiens, T-cell, Table 2, -log10(value, M), read-out: γδ T Cell Avg pED50 (converted)): 891 nM; Ki ([9]; Table 1, experimental, read-out: DPPS_pKi (converted)): 5.01 nM
O=P(O)(O)C(O)(Cc1cccc(-c2cccc(NS(=O)(=O)c3ccc4ccccc4c3)c2)c1)P(=O)(O)O [BPH-675, 1-Hydroxy-2-[3′-(Naphthalene-2-sulfonylamino)-biphenyl-3-yl]ethylidene-1,1-bisphosphonic acid] | only very weakly adsorbed | essentially fully rescued |  |  |  | no effect at all | 5.2 | 5.3 | 5.2 | 5.9 | no effect | 6.5 | IC50 ([2]; FIG. 2A, read-out: IC50, MCF-7 tumor cell growth inhibition): 5000 nM; effect on FPPS [5]: no effect
N=C(N)NCC(O)(P(=O)(O)O)P(=O)(O)O [BPH-678] |  |  |  |  |  |  | 4.7 | 4.7 | 4.6 | 7.9 |  | 7.4 | MCF-7 Cell pIC50 (M) ([2]; Table 2, -log10(value, M)): 5.37 M; IC50 ([5]; Table 9, read-out: H. sapiens FPPS IC50): 1250 nM; IC50 [10]: 25600 nM; γδ T Cell Avg pED50 (M) ([8]; Table 2, -log10(value, M)): 4.22 M
CCCCCCCCCCCCOc1ccc[n+](CC(P(=O)(O)O)P(=O)(O)O)c1 [BPH-716] |  |  |  |  |  |  |  |  |  |  |  |  | IC50 [11]: ~30 nM; fold more inhibitory than zoledronate, Matrigel invasion ([11]; versus zoledronate): about 1000 fold; γδ T cell activation EC50, times more active than Phosphostim ([8]; versus Phosphostim (bromohydrin of IPP)): ~2 ×; γδ T cell activation, times more active than the most potent conventional bisphosphonates ([8]; versus most potent conventional bisphosphonates): ~100 ×
O=P(O)(O)C(O)(Cn1ccnc1)P(=O)(O)O [zoledronate, reference compound] |  |  | ~15000 | ~70 | significant (p<0.01) reduction in tumor cell growth versus control |  |  |  |  |  | inhibited |  | IC50 ([11]; Homo sapiens): ~40000 nM; IC50 [9]: ~5000 nM
